The test system of assay [1] is P388. The experiment in a line: Compound was tested for in vitro cytotoxicity against P388 (murine lymphocytic leukemia) cell line. It is filed as functional, cell-based. The note with it: Mus musculus.
The test system of assay [2] is SK-OV-3. The assay can be described thus: Compound was tested for in vitro cytotoxicity against SK-OV-3 (human ovary carcinoma) cell line. It is filed as functional, cell-based. Particulars: SK-OV-3, Female gonad; call rule not given here.
The subject of a further assay is Vero. The assay can be described thus: Compound was tested for in vitro cytotoxicity against VERO (African green monkey kidney) cell line. The note with it: Chlorocebus sabaeus. The format is functional, cell-based.
In a further assay the test system is KB. The experiment in a line: Compound was tested for in vitro cytotoxicity against KB (human epidermoid carcinoma) cell line. The format is functional, cell-based.
Assay [3] deals with SK-OV-3. The experiment in a line: Compound was tested for in vitro cytotoxicity against SK-OV-3 (human ovary carcinoma) cell line; No activity. The format is functional, cell-based, Female gonad.
The test system of assay [4] is SK-OV-3. The assay can be described thus: Compound was tested for in vitro cytotoxicity against SK-OV-3 (human ovary carcinoma) cell line;No activity. It is filed as functional, cell-based, Female gonad.
Assay [5] relates to P388. The assay can be described thus: Compound was tested for in vitro cytotoxicity against P388 (murine lymphocytic leukemia) cell line;No activity. It is filed as functional, cell-based, Mus musculus.

The record followed here is ChEMBL document CHEMBL1129913, “Synthesis and cytotoxicity of novel artemisinin analogs” (Bioorg Med Chem Lett, 1997).

In brackets after ≈: the same amount, converted by molar mass.

Turning to `CCCC[C@H]1O[C@@H]2OC3(C)CC[C@H]4[C@H](C)CC[C@@H]([C@H]1C)[C@@]24OO3` (single isomer, unassigned), the IC50 (commonly the point on the concentration scale where inhibition reaches its midpoint) in the assay on P388 [1] stood at 40 µg/mL (≈ 123 µM); with SK-OV-3 [2] it was 40 µg/mL (≈ 123 µM); with Vero, 15 µg/mL (≈ 46.2 µM); in the assay with KB it was 4.5 µg/mL (≈ 13.9 µM).

As for `C[C@@H]1CC[C@H]2[C@@H](C)C(=O)O[C@@H]3O[C@@]4(C)CC[C@@H]1[C@]32OO4` [ARTEMISININ], the IC50 with P388 [1] is 28 µg/mL (≈ 99.2 µM); with SK-OV-3 [3], “Not Active”; with Vero, 31 µg/mL (≈ 110 µM); in the assay on KB, 16 µg/mL (≈ 56.7 µM).

In the case of `CCO[C@H]1O[C@@H]2OC3(C)CCC4[C@H](C)CC[C@@H]([C@H]1C)[C@]42OO3` (single isomer, unassigned), the IC50 entry is “Not Active” with SK-OV-3 [4], 28 µg/mL (≈ 89.6 µM) with Vero, “Not Active” in the assay with P388 [5] and 15 µg/mL (≈ 48 µM) in the assay on KB.

`C[C@@H]1CC[C@H]2[C@@H](C)CO[C@@H]3OC4(C)CC[C@@H]1[C@]32OO4` (single isomer, unassigned) [DEOXOARTEMISININ]: the IC50 with SK-OV-3 [2] is 40 µg/mL (≈ 149 µM); in the assay with Vero, 30 µg/mL (≈ 112 µM); in the assay with P388 [5] it was “Not Active”; in the assay on KB it was 24 µg/mL (≈ 89.4 µM).

Regarding `C[C@@H]1CCC2[C@@H](C)CCO[C@@H]3OC4(C)CCC1C23OO4` (single isomer, unassigned), the IC50 was 8 µg/mL (≈ 28.3 µM) with P388 [1], “Not Active” with SK-OV-3 [4], 30 µg/mL (≈ 106 µM) with Vero and 22 µg/mL (≈ 77.9 µM) in the assay on KB.

For `CCN(CC)Cc1ccc(C(=O)O[C@@H]2O[C@@H]3OC4(C)CCC5[C@H](C)CC[C@@H]([C@H]2C)[C@]53OO4)cc1` (single isomer, unassigned), the IC50 entry is “Not Active” in the assay on SK-OV-3 [4], 15 µg/mL (≈ 31.7 µM) with Vero, “Not Active” in the assay with P388 [5] and 3 µg/mL (≈ 6.33 µM) in the assay on KB.

With `CC[C@H]1O[C@@H]2O[C@@]3(C)CC[C@H]4[C@H](C)CC[C@@H]([C@H]1C)[C@@]24OO3`, the IC50 was 5.5 µg/mL (≈ 18.6 µM) in the assay with P388 [1], 33 µg/mL (≈ 111 µM) in the assay with SK-OV-3 [2], 30 µg/mL (≈ 101 µM) with Vero and 20 µg/mL (≈ 67.5 µM) in the assay on KB.

As for `C[C@H]1[C@@H](CCCC(=O)O)O[C@@H]2OC3(C)CCC4[C@H](C)CC[C@@H]1[C@]42OO3` (single isomer, unassigned), the half-maximal inhibitory concentration (IC50) result with SK-OV-3 [4] is “Not Active”; with Vero it was 30 µg/mL (≈ 84.6 µM); in the assay on P388 [5] it was “Not Active”; in the assay on KB, 32 µg/mL (≈ 90.3 µM).

As to `C[C@H]1[C@@H](Cc2ccccc2)O[C@@H]2OC3(C)CCC4[C@H](C)CC[C@@H]1[C@]42OO3` (single isomer, unassigned), the IC50 with SK-OV-3 [2] is 32 µg/mL (≈ 89.3 µM); in the assay with Vero, 15 µg/mL (≈ 41.8 µM); in the assay on P388 [5], “Not Active”; in the assay with KB, 13 µg/mL (≈ 36.3 µM).
